Experiment: Crystallinity of the complex by powder X-ray diffraction (XRD)
Type: physicochemical
Conditions: PANalytical X'Pert Pro, percent crystallinity
From the text: “Crystallinity” means the degree to which a chemical entity is present in a crystalline form. This degree can be expressed in units such as percent crystallinity. X-Ray diffraction (“XRD”) techniques can be used to determine crystallinity of substances, including inventive substances. From an XRD spectra, the percent crystallinity may be calculated as: Percent crystallinity=(sum of net intensity)/(sum of observed intensity) where the sum of net intensity=integrated area of peak intensity above the baseline, and sum of observed intensity=integrated area of total peak intensity including sum of net intensity and integrated area under baseline. Additional information about use of XRD to determine percent crystallinity may be found in R. Jenkins et al., Introduction to X-Ray Powder Diffractometry, John Wiley & Sonds, Inc. (1996). Qualitative determination of crystallinity of the complex of Example 1 was conducted with PANalytical X'Pert Pro Powder X-ray Diffraction (XRD) System. […] The crystallinity of sodium lauryl sulfate was determined to be 32%, and the crystallinity of the physical mixture was determined to be 50%.

crystallinity [%] | SMILES
63 | OCCC#Cc1nc(-c2ccc(F)cc2)c(-c2ccncc2)n1CCCc1ccccc1 [4-(4-Fluorophenyl)-2-(4-hydroxy-1-butynyl)-1-(3-phenylpropyl)-5-(4-pyridyl)imidazole]
32 | CCCCCCCCCCCCOS(=O)(=O)[O-].[Na+] [sodium lauryl sulfate]
